Data on two substances can be found in patent US11951131B2, “Anti-SLAMF7 chimeric antigen receptors” (The United States of America, as represented by the …, priority 2018, dated 2024).

“Also recorded” adds a separate entry of the source.

Experiment [1] relates to SLAMF7^+ MM.1S cells. Description: Cytotoxicity assay (4 hours, relative to CCRF-CEM cells). The experiment is classed as cell-based, human. The following applies: MM.1S relative to control CCRF-CEM cells (FIG. 8A). The method, then: Cytotoxicity assays were conducted as previously described (see Kochenderfer et al., J. Immunother., 32(7): 689-702 (2009)). Cytotoxicity was measured by comparing survival of SLAMF7^+ target cells relative to the survival of negative-control CCRF-CEM cells. Both of these cell types were combined in the same tubes with CAR-transduced T cells. CCRF-CEM negative control cells were labeled with the fluorescent dye 5-(and -6)-(((4-chloromethyl)benzoyl)amino) tetramethylrhodamine (CMTMR) (Invitrogen), and SLAMF7^+ target cells were labeled with CFSE. Cocultures were set up in sterile 5 mL test tubes (BD Biosciences) in duplicate at multiple T cell to target cell ratios. The target cells contained in the tubes were 50,000 SLAMF7^+ target cells along with 50,000 CCRF-CEM negative-control cells. The cultures were incubated for 4 hours at 37° C. Immediately after the incubation, 7AAD (7-amino-actinomycin D) (BD Biosciences) was added, and flow cytometry acquisition was performed. For each T cell plus target-cell culture, the percent survival of SLAMF7^+ target cells was determined by dividing the percent live SLAMF7^+ cells by the percent live CCRF-CEM negative control cells. The corrected percent survival of SLAMF7^+ target cells was calculated by dividing the percent survival of SLAMF7^+ target cells in each T cell plus target cell culture by the ratio of the percent live SLAMF7^+ target cells to percent live CCRF-CEM negative-control cells in tubes containing only SLAMF7^+ target cells and CCRF-CEM cells without effector T cells. This correction was necessary to account for variation in the starting cell numbers and for spontaneous target cell death. Cytotoxicity was calculated as follows: the percent cytotoxicity of […] target cells=100−corrected percent survival of SLAMF7^+ target cells.

The subject of experiment [2] is SLAMF7-K562 target cells. The experiment can be described thus: CFSE proliferation assay. It counts as cell-based, human. The following applies: SLAMF7-K562 versus NGFR-K562 target cells, 4 days (FIGS. 8B, 8C). The source says: Cocultures were set up in 24-well plates. Target cells included in cocultures were either 0.5×10^6 irradiated SLAMF7-K562 cells or 0.5×10^6 irradiated NGFR-K562 cells. The cocultures also included 1×10^6 T cells from cultures that had been transduced with either […]. The T cells were labeled with carboxy fluorescein diacetate succinimidyl ester (CFSE, Invitrogen) as previously described. The medium used in the cocultures was AIM V™ (Invitrogen) plus 5% human AB serum. IL-2 was not added to the medium. Four days after initiation, the live cells in each coculture were counted with trypan blue for dead cell exclusion, and flow cytometry was performed by Protein L staining.

For experiment [3], the system named is MM.1S human SLAMF7^+ multiple myeloma solid tumors. Description: MM.1S solid tumor model in NSG mice, anti-tumor efficacy. The experiment is classed as in vivo. The following applies: for anti-tumor activity: 2 million CAR^+ T cells per mouse, 5 mice per group (FIG. 17). As to the method: First, MM.1S human SLAMF7^+ multiple myeloma cell line tumors were established in immunodeficient mice. In this model, the MM.1S cells formed a solid cutaneous mass. Measurable tumors were allowed to develop over 7 days, and then the mice were treated with a single intravenous infusion of MSGV1-IC9-Luc90-CD828Z-transduced human T cells. NSG mice (NOD.Cg-Prkdc^scid Il2rg^tm1Wjl/SzJ) from The Jackson Laboratory, Bar Harbor, Me., were used. Mice received intradermal injections of 4×10^6 MM.1S cells. The cells were suspended in a 1:1 mixture of MATRIGEL™ gelatinous protein mixture (BD Biosciences) and PBS (Phosphate-buffered saline) for injection. Tumors were allowed to grow for 7 days, and then each mouse received a single intravenous infusion of human T cells that were transduced with one of 3 CARs: IC9-Luc90-CD828Z (suicide gene+anti-SLAMF7 CAR), Luc90-CD828Z (anti-SLAMF7 CAR alone), or a negative-control anti-CD19 CAR Hu19-CD828Z. A 4th group was left untreated. All groups included 5 mice. After CAR T-cell infusion, the tumors were measured with calipers every 3 days. The longest length and the length perpendicular to the longest length and the tumor thickness were multiplied together to obtain the tumor volume in mm^3. When the longest length reached 15 mm, mice were sacrificed. Animal studies were approved by the National Cancer Institute Animal Care and Use Committee.
FIGS. 16A-16B show a dose-titration of IC9-Luc90-CD828Z-expressing T cells. In this experiment, immunocompromised NSG mice were injected intradermally with 4×10^6 MM.1S cells to form a solid mass. Mice were then treated with a single infusion of 0.5×10^6, 2×10^6, or 8×10^6, IC9-Luc90-CD828Z-expressing T cells. […] The tumor volume curves end when the first mouse of a group was sacrificed.
MM.'S tumors were established in NSG mice as described in Example 9. FIGS. 17A-17B show results in which mice bearing MM.1S tumors were treated with T cells expressing one of 3 different CARs: IC9-Luc90-CD828Z (suicide gene+anti-SLAMF7 CAR), Luc90-CD828Z (anti-SLAMF7 CAR alone), or a negative-control anti-CD19 CAR Hu19-CD828Z. A 4th group was left untreated in both experiments. All groups included 5 mice. The CARP T cell dose was 2 million CARP T cells per mouse. There were 5 mice in all groups.

The mark [4] stands for this setting: dose of 2 million or more T cells per mouse.

For “IC9-Luc90-CD828Z: CAR plus suicide gene construct (SEQ ID NO: 31): IC9 suicide gene 5′ to the CAR, T2A, Luc90-CD828Z”, in experiment [1], the “killing of SLAMF7^+ target cells” value was “killed SLAMF7^+ target cells; also recorded: specifically killed the SLAMF7^+ MM.1S cells”. For the same substance, the “proliferation (CFSE dilution)” value in experiment [2] is “proliferated specifically in response to SLAMF7^+ target cells; also recorded: proliferated more”. Also, the “dose dependence of activity against established tumors” value in experiment [3] (0.5×10^6 to 8×10^6 T cells) is given as “dose-dependent activity”. Besides, the anti-tumor activity entry in experiment [3] is recorded as “powerful anti-tumor activity”. Moreover, the survival result in experiment [3] (setting [4]) is “mice survive long-term”. In experiment [3] (setting [4]), the tumor eradication entry is given as “tumors can be eradicated”. Besides, the effect on tumors entry is “only slightly slowed tumor growth relative to untreated mice but did not eliminate any tumors” in experiment [3] (single infusion of 0.5×10^6 CAR^+ T cells (FIG. 16)), “eliminated all tumors” in experiment [3] (single infusion of 2×10^6 CAR^+ T cells (FIG. 16)) and “eliminated all tumors” in experiment [3] (single infusion of 8×10^6 CAR^+ T cells (FIG. 16)).
Regarding “Luc90-CD828Z: anti-SLAMF7 CAR (SEQ ID NO: 27): murine Luc90 scFv, human CD8a hinge and TM, CD28 and CD3ζ domains; tested as transduced T cells”, in experiment [1], the “killing of SLAMF7^+ target cells” value is on record as “killed SLAMF7^+ target cells”. The “proliferation (CFSE dilution)” value in experiment [2] is given as “proliferated specifically in response to SLAMF7^+ target cells”. In experiment [3], the anti-tumor activity entry is recorded as “powerful anti-tumor activity”.
